Earlier results on one substance are cited in US20140309168A1, “MODIFIED PEPTIDES AND PROTEINS” (AmideBio, LLC, priority 2010, published 2014).

The conditions of this data set: background statement on the marketed peptide.

Turning to enfuvirtide, the “in vivo half life” value is reported as “about 3.8 hours”.
